One data set concerns the target Chymotrypsinogen A (Bos taurus, UniProt P00766).
The next data set has as its target T1, Serine protease 1 (Bos taurus, UniProt P00760).
T1 sequence (P00760 whole entry): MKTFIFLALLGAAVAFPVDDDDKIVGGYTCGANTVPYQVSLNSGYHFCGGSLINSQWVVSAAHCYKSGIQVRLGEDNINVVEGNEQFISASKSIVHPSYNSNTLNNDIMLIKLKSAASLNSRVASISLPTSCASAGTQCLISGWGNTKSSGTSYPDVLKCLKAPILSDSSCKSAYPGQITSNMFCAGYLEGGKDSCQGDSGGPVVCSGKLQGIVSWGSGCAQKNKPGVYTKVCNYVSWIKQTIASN

Description for Chymotrypsinogen A: Compound was tested for the inhibition of chymotrypsin
Description for Serine protease 1: Compound was tested for the inhibition of trypsin
Description for physchem: Dissociation constant of compound was determined

`CB(O)c1ccccc1` [PHENYL METHYL BORINIC ACID] returned a pKa in “physchem” of 8.1. The molecule further showed a Ki at Chymotrypsinogen A of 0.03 mM.

Regarding `OB(O)c1ccccc1` [PHENYLBORONIC ACID], the pKa is reported as 8.85. On Serine protease 1, the Ki was 10.2 mM.

Source of the values: ChEMBL document CHEMBL1127999, “Diphenylborinic acid is a strong inhibitor of serine proteases” (Bioorg Med Chem Lett, 1994).
